Measured values as given in US8389523B2, “Substituted quinoxaline and an agrochemical composition thereof” (Kumiai Chemical Industry Co., Ltd., priority 2007, dated 2013).

Assays:
Assay type in all cases: in vivo
Set-up in all cases: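 grade 0 to 5 of growth suppression where 5 is 90% or more and 0 below 10%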
[1] = tested on: Echinochloa oryzicola Vasing; experiment: Herbicidal effects in paddy field soil treatment (Test Example 1); conditions: paddy field soil treatment; 1000 g of the active ingredient per hectare; wettable powder added dropwise on water surface; 21st day after treatment
Method in brief: (§1)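 Scoring of herbicidal effect took place 21 days after treatment, using a rating scale, on plants grown in a greenhouse. The test compound, formulated as a wettable powder and diluted with water, had been applied dropwise to the flood water at 1000 g active ingredient per hectare, one day after sowing into puddled paddy soil held under 3 cm of water.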

[2] = tested on: Monochoria vaginalis (Burm. f.) Presl var. plantaginea (Roxb.) Solms-Laub.; experiment: as above; conditions: paddy field soil treatment; 1000 g of the active ingredient per hectare; wettable powder added dropwise on water surface; 21st day after treatment
Method in brief: as §1

[3] = tested on: Scirpus juncoides Roxb. var. ohwianus. T. Koyama; experiment: as above; conditions: paddy field soil treatment; 1000 g of the active ingredient per hectare; wettable powder added dropwise on water surface; 21st day after treatment
Method in brief: as §1

[4] = tested on: Abutilon theophrasti medicus; experiment: Herbicidal effects in upland field soil treatment (Test Example 2); conditions: 1000 g active ingredient per hectare, 21st day after treatment, criteria of Table 138
Method in brief: (§2)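 Herbicidal effect was rated visually against set criteria on the 21st day after a pre-emergence soil-surface spray of diluted wettable powder delivering 1000 g active ingredient per hectare (1000 L/ha). Seeds had been sown and covered in upland field soil; plants grew in a greenhouse.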

Amaranthus viridis L. [5] = experiment: as above; conditions: 1000 g active ingredient per hectare, 21st day after treatment, criteria of Table 138
Method in brief: as §2

[6] = tested on: Abutilon theophrasti medicus; experiment: Herbicidal effects in upland field foliar treatment (Test Example 3); conditions: criteria of Table 138; for herbicidal effect (index) on Abutilon theophrasti medicus: 1000 g active ingredient per hectare, 14th day after treatment; for herbicidal effects on Abutilon theophrasti medicus: 1000 g of the active ingredient per hectare, 14th day after the treatment, wettable powder
Method in brief: (§3)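 Herbicidal activity is rated visually on a fixed scale 14 days after foliar application. Plants raised from seed in upland field soil for two weeks under glass receive a water dilution of a wettable powder at 1000 g a.i. per hectare in 1000 L/ha.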

Amaranthus viridis L. [7] = experiment: as above; conditions: criteria of Table 138; for herbicidal effect (index) on Amaranthus viridis L.: 1000 g active ingredient per hectare, 14th day after treatment; for herbicidal effects on Amaranthus viridis L.: 1000 g of the active ingredient per hectare, 14th day after the treatment, wettable powder
Method in brief: as §3

[8] = tested on: Echinochloa crus-galli (L.) P. Beauv. var. crus-galli; experiment: as above; conditions: criteria of Table 138; for herbicidal effect (index) on Echinochloa crus-galli (L.) P. Beauv. var. crus-galli: 1000 g active ingredient per hectare, 14th day after treatment; for herbicidal effects on Echinochloa crus-galli (L.) P. Beauv. var. crus-galli: 1000 g of the active ingredient per hectare, 14th day after the treatment, wettable powder
Method in brief: as §3

Row | SMILES | Herbicidal effects index, Echinochloa oryzicola Vasing [1] | Herbicidal effects index, Monochoria vaginalis (Burm. f.) Presl var. plantaginea (Roxb.) Solms-Laub. [2] | Herbicidal effects index, Scirpus juncoides Roxb. var. ohwianus. T. Koyama [3] | herbicidal effect (index) on Abutilon theophrasti medicus [4] | herbicidal effect (index) on Amaranthus viridis L. (Amaranthus viridis L. [5]) | herbicidal effect (index) on Abutilon theophrasti medicus [6] | herbicidal effect (index) on Amaranthus viridis L. (Amaranthus viridis L. [7]) | herbicidal effect (index) on Echinochloa crus-galli (L.) P. Beauv. var. crus-galli [8] | herbicidal effects on Abutilon theophrasti medicus [6] | herbicidal effects on Amaranthus viridis L. (Amaranthus viridis L. [7]) | herbicidal effects on Echinochloa crus-galli (L.) P. Beauv. var. crus-galli [8]
1 | Cn1nc(C(F)(F)F)cc1-n1c(=O)c(C(=O)C2=C(O)CCCC2=O)nc2ccccc21 [I-158] | 5 | 5 | 5 | 5 | 5 | 5 | 5 | 5 |  |  | 
2 | COc1ccc(-n2c(=O)c(C(=O)C3=C(O)CCCC3=O)nc3ccccc32)nc1 [I-180] | 4 | 5 | 5 | 5 | 5 | 5 | 5 | 4 |  |  | 
3 | COCC(C)n1c(=O)c(C(=O)C2=C(O)CCCC2=O)nc2ccccc21 (stereo not shown) [Compound I-90] | 5 | 5 | 5 | 5 | 5 | 5 | 5 | 5 |  |  | 
4 | O=C1CCCC(O)=C1C(=O)c1nc2ccccc2n(COCC2CCCO2)c1=O (stereo not shown) [I-65] | 4 | 5 | 5 | 5 | 5 | 5 | 5 | 4 |  |  | 
5 | CCSCn1c(=O)c(C(=O)C2=C(O)CCCC2=O)nc2ccccc21 [Compound I-72] | 5 | 5 | 5 | 5 | 5 | 5 | 5 | 5 |  |  | 
6 | O=C1CCCC(O)=C1C(=O)c1nc2cc(F)cc(F)c2n(-c2ccccc2)c1=O [II-261] | 5 | 5 | 5 | 4 | 5 |  |  |  | 5 | 5 | 5
7 | COCCOCn1c(=O)c(C(=O)C2=C(O)CCCC2=O)nc2ccccc21 [I-58] | 5 | 5 | 5 | 5 | 5 | 5 | 5 | 5 |  |  | 
8 | COc1cccc(-n2c(=O)c(C(=O)C3=C(O)CCCC3=O)nc3ccccc32)c1 [II-57] | 5 | 5 | 5 | 5 | 5 |  |  |  | 5 | 5 | 5
9 | O=C1CCCC(O)=C1C(=O)c1nc2ccccc2n(-c2cccc(OC(F)F)c2)c1=O [II-90] | 5 | 5 | 5 | 5 | 5 |  |  |  | 5 | 5 | 5
10 | Cc1ccc(-n2c(=O)c(C(=O)C3=C(O)CCCC3=O)nc3ccccc32)c(F)c1 [II-212] | 5 | 5 | 5 | 5 | 5 |  |  |  | 5 | 5 | 5
11 | O=C1CCCC(O)=C1C(=O)c1nc2ccccc2n(-c2ccc3c(c2)CCC3)c1=O [II-222] | 5 | 5 | 5 | 5 | 5 |  |  |  | 5 | 5 | 5
12 | O=C1CCCC(O)=C1C(=O)c1nc2cccnc2n(-c2ccccc2Cl)c1=O [IV-9] | 5 | 5 | 5 | 5 | 5 |  |  |  | 5 | 5 | 5
13 | O=C1CCCC(O)=C1C(=O)c1nc2ccccc2n(-c2ccc(C(F)(F)F)cn2)c1=O [I-179] | 5 | 5 | 5 | 5 | 5 | 5 | 5 | 5 |  |  | 
14 | O=C1CCCC(O)=C1C(=O)c1nc2cccnc2n(-c2ccccc2)c1=O [IV-1, 2-(2-hydroxy-6-oxo-1-cyclohexenecarbonyl)-4-phenyl-pyrido[2,3-b]pyrazin-3(4H)-one] | 5 | 5 | 5 | 5 | 5 |  |  |  | 5 | 5 | 5
